# Target: Beta-glucuronidase (Escherichia coli (strain K12), UniProt P05804)
# Test: Biological Assay
# Protocol: Successful drug candidate compounds were subjected to numerous biochemical and cellular assays. Purified bacterial β-glucuronidases were challenged with compounds to determine inhibition properties in a standard, robust activity assay, utilizing p-nitrophenyl glucuronide (PNPG) as the enzymatic substrate. Reactions (n=3/inhibitor concentration) were conducted in a 96-well assay, consisting of PNPG substrate (12 concentrations between 25 μM and 5 mM), inhibitor solution (8 concentrations between 0.1 nM and 100 μM), and 5 nM enzyme. […] Purified bovine liver and human β-glucuronidase were dissolved in a reaction mixture containing 1 μM enzyme and 1 mM PNPG as substrate.
# Sequence of Beta-glucuronidase (P05804 whole entry): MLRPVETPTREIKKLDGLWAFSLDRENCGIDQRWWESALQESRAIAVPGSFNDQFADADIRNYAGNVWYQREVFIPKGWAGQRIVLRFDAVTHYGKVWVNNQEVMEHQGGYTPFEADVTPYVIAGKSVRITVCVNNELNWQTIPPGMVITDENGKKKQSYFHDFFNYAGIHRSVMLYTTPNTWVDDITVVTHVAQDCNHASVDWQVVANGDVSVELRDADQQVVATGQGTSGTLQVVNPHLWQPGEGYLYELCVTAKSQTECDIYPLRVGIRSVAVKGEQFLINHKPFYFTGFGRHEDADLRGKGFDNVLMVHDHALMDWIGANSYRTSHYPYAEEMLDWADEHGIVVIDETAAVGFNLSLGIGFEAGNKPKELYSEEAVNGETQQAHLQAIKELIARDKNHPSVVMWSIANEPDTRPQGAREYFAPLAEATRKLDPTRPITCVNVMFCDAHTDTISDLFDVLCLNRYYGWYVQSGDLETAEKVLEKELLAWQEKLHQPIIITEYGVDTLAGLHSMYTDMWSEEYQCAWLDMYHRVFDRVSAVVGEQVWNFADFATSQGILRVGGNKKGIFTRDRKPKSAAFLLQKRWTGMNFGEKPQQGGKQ
row,SMILES,IC50
1,"COc1cccc(NC(=O)N(CCO)Cc2cc3cc(C)cc(C)c3[nH]c2=O)c1 [US12017994, Ref #36']",3.71 µM
2,"Cc1cc(C)c2[nH]c(=O)c(CN(CCO)C(=O)Nc3ccc(F)cc3C#C[Si](C)(C)C)cc2c1 [US12017994, Ref #44']",19.1 µM

# — BindingDB's records for patent US12017994 (Symberix, 2024)
